Earlier results, collected in publication PMC11046985 (Neuro-Oncology Advances, 2024).

Columns and labels:
[1] = daily administration, patients with brain tumors; cited from earlier work
[2] = parameters: method as in earlier work; conditions: erlotinib increased from 150 to 600 mg; cited from earlier work

Row | SMILES | Therapeutic levels in cerebrospinal fluid (CSF) [1] | Increase of area under the curve estimation in the CSF [2] [%] | Increase of area under the curve estimation in the plasma [2] [%]
1 | C#Cc1cccc(Nc2ncnc3cc(OCCOC)c(OCCOC)cc23)c1 [erlotinib] | did not appear to reach therapeutic levels | 24 | 2
2 | COc1cc2ncnc(Nc3ccc(F)c(Cl)c3)c2cc1OCCCN1CCOCC1 [gefitinib] | did not appear to reach therapeutic levels |  | 
